The values that follow come from ChEMBL document CHEMBL1137187, “Isoindolinone ureas: a novel class of KDR kinase inhibitors” (Bioorg Med Chem Lett, 2004).

SMILES strings stand for the structures. pIC50: −log10 of the molar value. A value given as a limit tells only on which side of the number the result lay.

Assay [1] addresses Vascular endothelial growth factor receptor 2 (Homo sapiens, UniProt P35968). Put plainly: Inhibition of Vascular endothelial growth factor receptor 2 (KDR).
The next assay relates to NIH3T3. Put plainly: inhibitory activity of the Compound against NIH3T3 Cell lines. The assay is classed as functional, cell-based. The following applies: Mus musculus.

Chain of Vascular endothelial growth factor receptor 2 (P35968 whole entry): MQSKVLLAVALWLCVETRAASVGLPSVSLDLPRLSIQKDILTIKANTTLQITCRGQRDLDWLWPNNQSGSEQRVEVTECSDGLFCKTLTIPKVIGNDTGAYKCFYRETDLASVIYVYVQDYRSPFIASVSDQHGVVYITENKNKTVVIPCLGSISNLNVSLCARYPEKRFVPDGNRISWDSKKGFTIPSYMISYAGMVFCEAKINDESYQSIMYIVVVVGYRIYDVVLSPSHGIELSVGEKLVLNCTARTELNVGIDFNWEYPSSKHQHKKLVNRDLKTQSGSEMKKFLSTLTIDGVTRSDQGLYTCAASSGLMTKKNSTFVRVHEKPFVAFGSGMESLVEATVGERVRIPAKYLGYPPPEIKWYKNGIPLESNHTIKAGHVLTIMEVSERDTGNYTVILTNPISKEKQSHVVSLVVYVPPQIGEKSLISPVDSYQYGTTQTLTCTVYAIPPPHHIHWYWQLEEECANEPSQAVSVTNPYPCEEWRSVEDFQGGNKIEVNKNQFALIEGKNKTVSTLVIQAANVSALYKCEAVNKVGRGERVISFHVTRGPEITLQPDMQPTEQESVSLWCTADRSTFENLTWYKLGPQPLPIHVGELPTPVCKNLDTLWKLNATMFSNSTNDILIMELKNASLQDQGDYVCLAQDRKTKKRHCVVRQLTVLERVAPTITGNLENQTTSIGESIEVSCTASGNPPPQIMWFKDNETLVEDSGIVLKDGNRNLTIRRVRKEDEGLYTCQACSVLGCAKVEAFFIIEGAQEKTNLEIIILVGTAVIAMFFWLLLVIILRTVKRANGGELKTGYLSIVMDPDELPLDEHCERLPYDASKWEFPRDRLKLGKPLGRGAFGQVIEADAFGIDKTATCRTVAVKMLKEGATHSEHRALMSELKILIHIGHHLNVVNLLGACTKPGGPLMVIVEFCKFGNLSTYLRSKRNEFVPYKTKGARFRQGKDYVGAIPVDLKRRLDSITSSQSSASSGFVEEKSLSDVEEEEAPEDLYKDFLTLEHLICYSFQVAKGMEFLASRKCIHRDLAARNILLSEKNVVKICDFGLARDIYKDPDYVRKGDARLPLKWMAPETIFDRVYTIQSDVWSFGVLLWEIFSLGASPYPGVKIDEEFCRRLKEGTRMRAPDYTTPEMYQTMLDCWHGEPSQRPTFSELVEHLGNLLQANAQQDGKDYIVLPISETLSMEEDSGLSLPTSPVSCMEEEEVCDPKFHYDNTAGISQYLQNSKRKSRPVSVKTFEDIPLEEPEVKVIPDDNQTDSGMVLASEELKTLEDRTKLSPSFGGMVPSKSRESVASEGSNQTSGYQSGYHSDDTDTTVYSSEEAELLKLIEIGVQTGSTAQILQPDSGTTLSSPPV

For orientation: pIC50 means the IC50 on a negative log10 scale, so that one unit is a factor of ten. Low values mean a high IC50, high ones a low IC50. As to `Cc1cccc(N(C)C(=O)Nc2ccc(-c3cccc4c3CNC4=O)cc2)c1`, the pIC50 in assay [1] was 4.72.

For the compound `Cc1cccc(NC(=O)Nc2ccc(-c3ccc(N)c4c3CNC4=O)cc2)c1`, in assay [1], the negative logarithm of the IC50 (pIC50) is 7.85. Consider `COc1cccc(NC(=O)Nc2ccc(-c3cccc4c3CNC4=O)cc2)c1`, for which, in assay [1], the pIC50 is 6.24. The same measure, in the same setting: the figure for `Cc1ccccc1NC(=O)Nc1ccc(-c2cccc3c2CNC3=O)cc1` is 5.36. Compound `Cc1cccc(NC(=O)N(C)c2ccc(-c3cccc4c3CNC4=O)cc2)c1` showed a pIC50 in assay [1] of 5.96. On to `Cc1cccc(NC(=O)Nc2ccc(-c3cccc4c3CNC4=O)cc2C)c1`, for which the negative-log IC50 (pIC50) with NIH3T3 was 7.17. As to `O=C(Nc1ccc(-c2cccc3c2CNC3=O)cc1)Nc1ccc2c(c1)CCC2`, in assay [1], the negative-log IC50 (pIC50) is 7.41.

For the compound `Cc1cccc(NC(=O)Nc2ccc(-c3cccc4c3CNC4=O)cc2F)c1`, the pIC50 in assay [1] is 7.36. In assay [1], `Cc1cccc(NC(=O)Cc2ccc(-c3cccc4c3CNC4=O)cc2)c1` showed a negative-log IC50 (pIC50) of 5.68. The same measure, in the same setting: then `Cc1cccc(NC(=O)Nc2ccc(-c3cccc4c3CNC4=O)c(C)c2)c1`, with 6.11; and `O=C(Nc1ccc(-c2cccc3c2CNC3=O)cc1)Nc1ccc(C(F)(F)F)cc1`, with 6.79; and `Cc1cccc(NC(=O)Nc2ccc(-c3ccc(NC(=O)c4ccccc4)c4c3CNC4=O)cc2)c1`, with 6.33. Same read-out and setting: the figure for `Cc1cccc(NC(=O)Nc2c(C)cc(-c3cccc4c3CNC4=O)cc2C)c1` is less than 4.30. For the compound `Cc1cccc(NC(=O)Nc2ccc(-c3ccc(NC(=O)c4cccnc4)c4c3CNC4=O)cc2)c1`, the negative-log IC50 (pIC50) in assay [1] is 8.00; with NIH3T3, 7.96. `COCCOc1ccc(-c2ccc(NC(=O)Nc3cccc(C)c3)cc2)c2c1C(=O)NC2`: the pIC50 in assay [1] was 6.90.

The compound `O=C1NCc2c1cccc2-c1ccc(NS(=O)(=O)c2ccccc2)cc1` showed a negative logarithm of the IC50 (pIC50) in assay [1] of less than 4.30. Take `N#Cc1cccc(NC(=O)Nc2ccc(-c3cccc4c3CNC4=O)cc2)c1`: the pIC50 in assay [1] was 6.43.

Regarding `O=C(Nc1ccc(-c2cccc3c2CNC3=O)cc1)Nc1cccc(C(F)(F)F)c1`, the negative-log IC50 (pIC50) in assay [1] was 8.15; in the assay with NIH3T3, 7.19.

As to `CCc1cc(-c2cccc3c2CNC3=O)ccc1NC(=O)Nc1cccc(C)c1`, the pIC50 in assay [1] is 5.22. The same measure, in the same setting: then `Cc1cccc(NC(=O)Nc2ccc(-c3cccc4c3CNC4=O)c(Cl)c2)c1`, with 7.15. With `Cc1cccc(NC(=O)Nc2ccc(-c3cccc4c3CNC4=O)cc2Cl)c1`, the pIC50 in assay [1] is 7.52; in the assay on NIH3T3, 7.00.

Consider `Cc1cccc(NC(=O)Nc2ccc(-c3cccc4c3CNC4=O)c(F)c2)c1`, for which the pIC50 in assay [1] is 7.28.

Consider `Cc1cccc(NC(=S)Nc2ccc(-c3cccc4c3CNC4=O)cc2)c1`, for which the pIC50 in assay [1] was 5.00. The same measure, in the same setting: the figure for `CC(=O)Nc1ccc(-c2ccc(NC(=O)Nc3cccc(C)c3)cc2)c2c1C(=O)NC2` is 7.19. Same read-out and setting: the figure for `Cc1cccc(NC(=O)Nc2ccc(-c3cccc4c3CNC4=O)cc2C(F)(F)F)c1` is 7.47. The same measure, in the same setting: the figure for `Cc1cccc(NC(=O)Nc2ccc(-c3cccc4c3CNC4=O)c(C(F)(F)F)c2)c1` is 5.05. `Cc1cccc(NC(=O)Nc2ccc(-c3ccc(NC(=O)CN(C)C)c4c3CNC4=O)cc2)c1` showed a pIC50 in assay [1] of 6.46. As for `COc1ccc(-c2ccc(NC(=O)Nc3cccc(C)c3)cc2)c2c1C(=O)NC2`, the negative logarithm of the IC50 (pIC50) was 7.68 in assay [1] and 6.77 in the assay on NIH3T3. Consider `COc1cc(-c2nn([C@H]3CC[C@H](N4CCN(C)CC4)CC3)c3ncnc(N)c23)ccc1NC(=O)c1ccccc1`, for which the pIC50 in assay [1] was less than 7.30.

On to `Cc1cc(C)cc(NC(=O)Nc2ccc(-c3cccc4c3CNC4=O)cc2)c1`, for which, in assay [1], the negative logarithm of the IC50 (pIC50) was 7.08.

Consider `O=C(Nc1ccc(-c2cccc3c2CNC3=O)cc1)Nc1cccc(Cl)c1`, for which the pIC50 in assay [1] was 7.34.

As to `CC(C)OCc1ccc2c(c1)c1c3c(c4c(c1n2CCCCC(=O)N(C)C)Cc1ccccc1-4)C(=O)NC3`, in assay [1], the pIC50 is 7.74. As to `Cc1cccc(CC(=O)Nc2ccc(-c3cccc4c3CNC4=O)cc2)c1`, the negative logarithm of the IC50 (pIC50) in assay [1] is less than 4.30. In assay [1], `O=C(Nc1ccc(-c2cccc3c2CNC3=O)cc1)c1ccccc1` had a negative-log IC50 (pIC50) of less than 4.30. For the compound `O=C(Nc1ccccc1)Nc1ccc(-c2cccc3c2CNC3=O)cc1`, the pIC50 in assay [1] was 5.74. `Cc1ccc(NC(=O)Nc2ccc(-c3cccc4c3CNC4=O)cc2)cc1` had a pIC50 in assay [1] of 6.37. Take `CCc1cccc(NC(=O)Nc2ccc(-c3cccc4c3CNC4=O)cc2)c1`: the negative logarithm of the IC50 (pIC50) in assay [1] was 7.54. For the compound `Cc1cccc(NC(=O)Nc2ccc(-c3cccc4c3CNC4=O)cc2)c1`, the negative-log IC50 (pIC50) in the assay with NIH3T3 is 6.57. `O=C(Nc1ccc(-c2cccc3c2CNC3=O)cc1)Nc1cc(C(F)(F)F)ccc1F`: the values for the negative-log IC50 (pIC50) (in assay [1]; in the assay with NIH3T3) were 7.64 and 6.82, respectively. In assay [1], `O=C(Nc1ccc(-c2cccc3c2CNC3=O)cc1)Nc1cccc(F)c1` showed a pIC50 of 6.28.
